Test results from patent US8110543B2, “Anti-invasive and anti-angiogenic compositions” (Angstrom Pharmaceuticals, Inc., priority 1997, dated 2012).

Columns and labels:
[1] = system: PC-3 cells; assay: PC-3 CAT metastasis model; type: in vivo, mice; settings: minipump 100 mg/kg/day, 14 or 21 days
Experimental: The compounds of this invention are also tested for inhibition of late metastasis using an experimental metastasis model (Crowley et al., 1993). Late metastasis involves the steps of attachment and extravasation of tumor cells, local invasion, seeding, proliferation and angiogenesis.
Human prostatic carcinoma cells (PC-3) transfected with a reporter gene, preferably the green fluorescent protein (GFP) gene, but as an alternative with a gene encoding the enzymes chioramphenicol acetyl-transferase (CAT), luciferase or LacZ. This permits utilization of either of these markers (fluorescence detection of GFP or histochemical colorimetric detection of enzymatic activity) for following the fate of these cells. Cells are injected, preferably iv, and metastases identified after about 14 days, particularly in the lungs but also in regional lymph nodes, femurs and brain. This mimics the organ tropism of naturally occurring metastases of prostate cancer. For example, GFP-expressing PC-3 cells (1×10^6 cells per mouse) are injected iv into the tail veins of nude (nu/nu) mice. Animals are also implanted with mini-pumps (sub-dermally on the back) dispensing either the test compound (at least about 100 mg/kg/day) or vehicle. The animals are euthanized after 14 days and their organs prepared for histological examination. Single metastatic cells and foci are visualized and quantitated by fluorescence microscopy or light microscopic histochemistry or by grinding the tissue and quantitative colorimetric assay of the detectable label.
(§1) In addition to Å6, other related peptide compounds described above are tested for efficacy in vivo in the 3LL model (as provided above) as well as the PC-3 model. PC-3 cells transfected with the gene encoding the enzyme chloramphenicol acetyl-transferase (CAT) are inoculated into mice i.v. at doses of 1×10^6 cells per mouse. These mice are implanted with a minipump, as above, which dispenses 100 mg/kg/day of the peptide or vehicle over a period of 14 or 21 days. At termination of treatment, the animals are euthanized and the tumor marker probe is assayed in regional lymph nodes, femurs, lungs, and brain.

[2] = system: 3LL cells; assay: Tumor angiogenesis (microvessel density) in 3LL model; type: in vivo, Mice; settings: 100-250 mg/kg/day; compared to controls
Experimental: Angiogenesis is measured by determining microvessel density using immunostaining for CD31 (also known as platelet-endothelial cell adhesion molecule or PECAM). Results are reported as the average microvessel density of 5 fields each from 5 different sections (Penfold et al., 1996). Typically, the whole tumor is excised, sectioned and the sections examined histologically for microvessel density using appropriate stains or labels for other markers.
Angiogenesis induced by tumor growth and metastasis in vivo is examined in the models systems described above. Mice injected with 3LL cells are treated either with peptide or with vehicle and are sacrificed at various time points. Angiogenesis is assessed by determining microvessel density (MVD) using an antibody specific for microvascular endothelium or other markers of growing blood vessels, such as PECAM (CD31). Such an antibody is employed in conventional immunohistological methods to immunostain tissue sections as described by Penfold et al., supra. A large number of such antibodies is commercially available, for example the JC70 mAb. The MVD are correlated with other measures of tumor behavior including lymph node status and primary tumor size and rate of growth. In humans as reported by Penfold et al., supra, tumor MVD correlates with lymph node metastasis and is independent of tumor size, growth rate or type of histological differentiation.
The compounds are given i.v., i.p., or by osmotic minipump Typical dosages are 100-250 mg/kg/day. At various time points, two animals are sacrificed, and the tumor tissue and surrounding tissue is prepared for histological examination. Results are reported as the average microvessel density of 5 fields each from 5 different sections. The following seven compounds are tested: Ac-[…]-Am (SEQ ID NO:2), Ac-[…]-Am (SEQ ID NO: 6) (disubstitution variant at positions 3 and 4), Ac-[…]-Am (SEQ ID NO: 7) (disubstitution variant at positions 7 and 8), Ac-[…]-Am (SEQ ID NO: 8) (substitution variant at position 1), Ac-PSSPPEE-Am (SEQ ID NO: 4) (deletion variant, position 1 of SEQ ID NO:2 deleted), Ac-KPSSPPE-Am (SEQ ID NO: 5) (deletion variant, position 8 of SEQ ID NO:2 deleted), and Ac-[…]-Am (SEQ ID NO:1).

[3] = system: Mat B-III tumors; assay: Rat syngeneic Mat B-III breast cancer model; type: in vivo; settings: comparative analysis of related peptides
Experimental: The effects of the compounds are tested on tumor progression in a rat syngeneic model of breast cancer (Xing and Rabbani, 1996). Mat BIII rat breast tumor cells (1×10^6 cells in PBS, 0.1 mL per rat) are inoculated into the mammary fat pads of female Fisher rats. The test compound is dissolved in PBS (200 mM stock), sterile filtered and dispensed in vivo at a dose of up to about 100 mg/kg/day) using a 14-day Alza osmotic mini-pump implanted intraperitoneally at the time of inoculation. Control animals receive vehicle (PBS) alone. Animals are euthanized at day 14 and examined for metastasis in the spleen, lungs, liver, kidney and lymph nodes. In addition, the primary tumors are excised, quantitated, and prepared for immunohistochemistry.
The rat syngeneic breast cancer system (Xing and Rabbani, 1996) employs Mat BIIIrat breast cancer cells. When Mat B-III cells (1×10^6 cells) are inoculated into the mammary fat pad of female Fisher rats, they form large tumors which metastasize to regional lymph nodes (LNs) and other distal sites within 14-20 days.
Å6 was initially delivered prophylactically (infusion starting on the day of tumor inoculation) using an Alzet mini-pump that delivered 75 mg/kg/day. […] Metastasis was quantitated by counting the number of macroscopic foci without regard for their size.
Estrogen receptor-positive Mat B-III tumors were used to test combination treatment with Å6 (75 mg/kg/day) and TAM (3 mg/kg/day). In contrast to previous studies, the Mat B-III tumors (inoculated in the mammary fat pad) were staged to 40-50 mm^3 prior to the initiation of treatment. Treatment was continued for 8 days during which time primary tumor growth was measured using calipers (FIG. 14).

[4] = system: 3LL; assay: 3LL metastasis model, related peptides; design: species or system mice; settings: mouse, in vivo
Description: This model has been utilized by a number of investigators. See, for example, Gorelik, E. et al., J. Nat'l. Canc. Inst. 65:1257-1264 (1980); Gorelik, E. et al., Rec. Results Canc Res. 75:20-28 (1980); Isakov, N. et al., Invasion Metas. 2:12-32 (1982); Talmadge J. E. et al., J. Nat'l. Canc. Inst. 69:975-980 (1982); Hilgard, P. et al, Br. J. Cancer 35:78-86 (1977)). Test mice are male C57BL/6 mice, 2-3 months old. Following sc, im, or intra-footpad implantation, this tumor produces metastases, preferentially in the lungs. With some lines of the tumor, the primary tumor exerts anti-metastatic effects and must first be excised before study of the metastatic phase (see also U.S. Pat. No. 5,639,725).
Single-cell suspensions are prepared from solid tumors by treating minced tumor tissue with a solution of 0.3% trypsin. Cells are washed 3 times with PBS (pH 7.4) and suspended in PBS. Viability of the 3LL cells prepared in this way is generally about 95-99% (by trypan blue dye exclusion). Viable tumor cells (3×10^4-5×10^6) suspended in 0.05 ml PBS are injected subcutaneously, either in the dorsal region or into one hind foot pad of C57BL/6 mice. Visible tumors appear after 3-4 days after dorsal sc injection of 10^6 cells. The day of tumor appearance and the diameters of established tumors are measured by caliper every two days.
The treatment is given as one or two doses of peptide or derivative, per week. In another embodiment, the peptide is delivered by osmotic minipump.
Lungs are removed and weighed. Lungs are fixed in Bouin's solution and the number of visible metastases is recorded. The diameters of the metastases are also measured using a binocular stereoscope equipped with a micrometer-containing ocular under 8× magnification. On the basis of the recorded diameters, it is possible to calculate the volume of each metastasis. To determine the total volume of metastases per lung, the mean number of visible metastases is multiplied by the mean volume of metastases. To further determine metastatic growth, it is possible to measure incorporation of ^125IdUrd into lung cells (Thakur, M. L. et al., J. Lab. Clin. Med. 89:217-228 (1977). Ten days following tumor amputation, 25 μg of fluorodeoxyuridine is inoculated into the peritoneums of tumor-bearing (and, if used, tumor-resected mice). After 30 min, mice are given 1 μCi of ^125IdUrd (iododeoxyuridine). One day later, lungs and spleens are removed and weighed, and a degree of ^125IdUrd incorporation is measured using a gamma counter.
as §1

[5] = system: human prostate cancer line PC-3; assay: Matrigel invasion assay, PC-3 cells; type: cell-based; settings: 5 μM (FIG. 1, FIG. 2)
Experimental: Several peptides were tested for anti-invasive capacity in a Matrigel® invasion assay system as indicated above (Kleinman et al., supra; Parish et al., supra). Several invasive human tumor lines (PC-3, MDA-MB-231) and non-human tumors (3LL, Mat B-III) were examined. The rat breast cancer line Mat B III and the human prostate cancer line PC-3 were initially used.
Tumor cells (5×10^5/mL, in a volume of 200 μL) in serum-free RPMI 1640 medium were added to a disposable transwell invasion chamber coated with Matrigel® (Becton Dickinson, Lincoln Park, N.J.). The invasion chambers were placed in 24-well tissue culture plates filled with serum-free RPMI-1640 and the plates were placed in an atmosphere of 5% CO2 in humidified air at 37° C. for 48-72 hours. The chambers were then removed, inverted, and the cells which had invaded (and now appeared on the bottom face of the invasion chamber) were fixed and stained using Diff-Quick® (Scientific Products). Cells were counted in 10 different fields on each filter and an average obtained.

Ac-KPTTPPEE-Am: disubstitution variant at positions 3 and 4 (SEQ ID NO: 6) (Ac-KPTTPPEE-NH2)
metastasis, PC-3 model [1]: markedly inhibited | number of microvessels in the region of the primary tumor [2]: significant reduction | number of metastases in the spleen, lungs, liver, kidney and lymph nodes [3]: significant reduction | size of the primary tumor [3]: significant reduction | metastasis, 3LL model [4]: markedly inhibited

KPSSPPEELK [Lys-Pro-Ser-Ser-Pro-Pro-Glu-Glu-Leu-Lys, reference compound]
in vitro invasion of PC-3 cells in a Matrigel system [5]: inactive

Ac-Pro-Ser-Ser-Pro-Pro-Glu-Glu-Am (Ac-PSSPPEE-NH2) [Ac-PSSPPEE-Am]
metastasis, PC-3 model [1]: no reduction | number of microvessels in the region of the primary tumor [2]: no significant effect | number of metastases in the spleen, lungs, liver, kidney and lymph nodes [3]: fail to cause a significant change | size of the primary tumor [3]: fail to cause a significant change | metastasis, 3LL model [4]: no reduction

Ac-KPSSPPEELK-Am: capped counterpart of KPSSPPEELK (SEQ ID NO: 1) (Ac-KPSSPPEELK-NH2) [reference compound]
metastasis, PC-3 model [1]: no reduction | number of microvessels in the region of the primary tumor [2]: no significant effect | number of metastases in the spleen, lungs, liver, kidney and lymph nodes [3]: fail to cause a significant change | size of the primary tumor [3]: fail to cause a significant change | metastasis, 3LL model [4]: no reduction

Ac-Lys-Pro-Ser-Ser-Pro-Pro-Glu-Am (Ac-KPSSPPE-NH2) [Ac-KPSSPPE-Am]
metastasis, PC-3 model [1]: no reduction | number of microvessels in the region of the primary tumor [2]: no significant effect | number of metastases in the spleen, lungs, liver, kidney and lymph nodes [3]: fail to cause a significant change | size of the primary tumor [3]: fail to cause a significant change | metastasis, 3LL model [4]: no reduction

Ac-RPSSPPEE-Am: substitution variant at position 1 (SEQ ID NO: 8) (Ac-RPSSPPEE-NH2)
metastasis, PC-3 model [1]: markedly inhibited | number of microvessels in the region of the primary tumor [2]: significant reduction | number of metastases in the spleen, lungs, liver, kidney and lymph nodes [3]: significant reduction | size of the primary tumor [3]: significant reduction | metastasis, 3LL model [4]: markedly inhibited

Ac-KPSSPPDD-Am: disubstitution variant at positions 7 and 8 (SEQ ID NO: 7) (Ac-KPSSPPDD-NH2)
metastasis, PC-3 model [1]: markedly inhibited | number of microvessels in the region of the primary tumor [2]: significant reduction | number of metastases in the spleen, lungs, liver, kidney and lymph nodes [3]: significant reduction | size of the primary tumor [3]: significant reduction | metastasis, 3LL model [4]: markedly inhibited
